A word on the IC50: it is the midpoint of a concentration-inhibition curve.

The assay addresses T1, TNKS1 (Homo sapiens, UniProt O95271).
T1 sequence (O95271 1-1327): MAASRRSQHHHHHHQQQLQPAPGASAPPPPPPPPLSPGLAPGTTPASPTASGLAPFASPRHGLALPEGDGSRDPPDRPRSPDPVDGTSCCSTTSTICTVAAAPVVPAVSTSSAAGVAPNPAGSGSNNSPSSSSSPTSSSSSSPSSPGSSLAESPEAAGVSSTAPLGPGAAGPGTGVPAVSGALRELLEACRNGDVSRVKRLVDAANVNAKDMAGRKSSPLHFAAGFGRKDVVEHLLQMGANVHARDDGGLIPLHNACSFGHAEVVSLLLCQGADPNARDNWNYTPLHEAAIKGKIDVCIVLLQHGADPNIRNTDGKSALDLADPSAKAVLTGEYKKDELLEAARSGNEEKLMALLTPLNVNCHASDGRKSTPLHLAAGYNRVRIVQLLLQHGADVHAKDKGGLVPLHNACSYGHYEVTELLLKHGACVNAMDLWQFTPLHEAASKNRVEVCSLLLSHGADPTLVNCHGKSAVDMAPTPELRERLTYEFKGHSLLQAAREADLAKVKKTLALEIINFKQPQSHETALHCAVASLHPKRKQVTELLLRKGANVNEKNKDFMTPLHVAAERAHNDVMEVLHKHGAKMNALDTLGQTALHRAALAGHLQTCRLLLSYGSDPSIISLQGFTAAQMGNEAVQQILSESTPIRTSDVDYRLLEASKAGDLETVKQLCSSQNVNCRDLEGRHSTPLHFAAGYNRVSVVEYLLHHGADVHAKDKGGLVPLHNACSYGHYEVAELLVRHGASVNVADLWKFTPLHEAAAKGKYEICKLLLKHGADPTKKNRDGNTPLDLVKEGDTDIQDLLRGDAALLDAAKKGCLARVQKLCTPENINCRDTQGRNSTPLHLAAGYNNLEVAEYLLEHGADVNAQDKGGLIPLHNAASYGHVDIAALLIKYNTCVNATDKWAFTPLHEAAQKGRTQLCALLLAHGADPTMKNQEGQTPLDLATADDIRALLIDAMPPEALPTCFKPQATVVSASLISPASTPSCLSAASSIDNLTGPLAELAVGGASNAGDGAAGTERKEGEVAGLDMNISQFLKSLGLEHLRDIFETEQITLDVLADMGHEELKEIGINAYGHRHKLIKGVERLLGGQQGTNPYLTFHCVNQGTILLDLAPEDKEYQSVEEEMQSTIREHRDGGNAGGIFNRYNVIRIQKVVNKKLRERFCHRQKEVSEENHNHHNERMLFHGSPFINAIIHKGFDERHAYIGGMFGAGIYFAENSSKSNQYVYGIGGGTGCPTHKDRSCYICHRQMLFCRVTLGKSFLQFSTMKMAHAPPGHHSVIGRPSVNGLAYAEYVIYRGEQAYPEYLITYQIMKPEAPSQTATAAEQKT
The assay is described as follows: Modified TNKS1 Assay 3 (BPS kit #80573, biotin-NAD+, 96 well). It is filed as biochemical. Conditions: human TNKS1, BPS kit #80573, 96 well. The method, boiled down: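 Chemiluminescent assay of TNKS1-catalysed ribosylation of a protein substrate with biotin-labelled NAD+, detected via streptavidin-HRP; run per kit protocol. Inhibition lowers the signal, and IC50 is the compound concentration halving the normalised readout.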

SMILES strings stand for the structures.

In the case of `C[C@@H]1CCCCN1CCNC(=O)c1[nH]cnc1C(=O)Nc1ccc(NC(=O)c2ccc(F)cc2Cl)cc1` [Example 267, N^4-{4-[(2-chloro-4-fluorobenzoyl)amino]phenyl}-N^5-{2-[(2R)-2-methylpiperidin-1-yl]ethyl}-1H-imidazole-4,5-dicarboxamide], the IC50 turned out to be 20 nM.
For `C[C@@H]1CCCN(CCNC(=O)c2[nH]cnc2C(=O)Nc2ccc(NC(=O)c3ccc(F)cc3Cl)cc2)C1` [Example 278, N^4-{4-[(2-chloro-4-fluorobenzoyl)amino]phenyl}-N^5-{2-[(3R)-3-methylpiperidin-1-yl]ethyl}-1H-imidazole-4,5-dicarboxamide] the value was less than 0.5 nM.
For `O=C(Nc1ccc(NC(=O)c2[nH]cnc2C(=O)NCCN2CCCCC2)cc1)c1ccc(F)cc1Cl` [Example 32, N^4-{4-[(2-chloro-4-fluorobenzoyl)amino]phenyl}-N^5-[2-(piperidin-1-yl)ethyl]-1H-imidazole-4,5-dicarboxamide] the value was 8 nM.
For `CNC(=O)c1nc[nH]c1C(=O)Nc1ccc(NC(=O)c2ccc(F)cc2Br)cc1` [Example 56, N^5-{4-[(2-bromo-4-fluorobenzoyl)amino]phenyl}-N^4-methyl-1H-imidazole-4,5-dicarboxamide] the value was 90 nM; for `CNC(=O)c1nc[nH]c1C(=O)Nc1ccc(NC(=O)c2ccc(S(C)(=O)=O)cc2Cl)cc1` [Example 55, N^5-(4-{[2-chloro-4-(methylsulfonyl)benzoyl]amino}phenyl)-N^4-methyl-1H-imidazole-4,5-dicarboxamide], 30 nM.
Take `Cc1nc(C(=O)Nc2ccc(NC(=O)c3ccc(F)cc3Cl)cc2)c(C(=O)NCCN2CCCCC2)[nH]1` [Example 67, N^4-{4-[(2-chloro-4-fluorobenzoyl)amino]phenyl}-2-methyl-N^5-[2-(piperidin-1-yl)ethyl]-1H-imidazole-4,5-dicarboxamide]: the IC50 is 5 nM.
Next, `CN(C)CCNC(=O)c1nc[nH]c1C(=O)Nc1ccc(NC(=O)c2ccc(F)cc2Cl)cc1` [Example 22, N^4-{4-[(2-chloro-4-fluorobenzoyl)amino]phenyl}-N^5-[2-(dimethylamino)ethyl]-1H-imidazole-4,5-dicarboxamide]: 30 nM; `O=C(Nc1ccc(NC(=O)c2[nH]cnc2C(=O)N2CC3(COC3)C2)cc1)c1cc(F)c(F)cc1Cl` [Example 52, N-{4-[(2-chloro-4,5-difluorobenzoyl)amino]phenyl}-4-(2-oxa-6-azaspiro[3.3]hept-6-ylcarbonyl)-1H-imidazole-5-carboxamide]: more than 500 nM.
Consider `O=C(Nc1ccc(NC(=O)c2[nH]cnc2C(=O)NC2CC2)cc1)c1cc(F)c(F)cc1Cl` [Example 51, N^5-{4-[(2-chloro-4,5-difluorobenzoyl)amino]phenyl}-N^4-cyclopropyl-1H-imidazole-4,5-dicarboxamide], for which the IC50 was 230 nM.
`CNC(=O)c1nc[nH]c1C(=O)Nc1ccc(NC(=O)c2ccc(F)cc2I)cc1` [Example 61, N^5-{4-[(4-fluoro-2-iodobenzoyl)amino]phenyl}-N^4-methyl-1H-imidazole-4,5-dicarboxamide] returned an IC50 of 140 nM.
For `CS(=O)(=O)c1ccc(C(=O)Nc2ccc(NC(=O)c3[nH]cnc3C(=O)NCCN3CCCCC3)cc2)c(Cl)c1` [Example 53, N^5-(4-{[2-chloro-4-(methylsulfonyl)benzoyl]amino}phenyl)-N^4-[2-(piperidin-1-yl)ethyl]-1H-imidazole-4,5-dicarboxamide] the value was 2 nM.
Next, `CC(CN1CCOCC1)NC(=O)c1[nH]cnc1C(=O)Nc1ccc(NC(=O)c2ccc(F)cc2Cl)cc1` (single isomer, unassigned; enantiomer 2) [Example 270, N^4-{4-[(2-chloro-4-fluorobenzoyl)amino]phenyl}-N^5-[1-(morpholin-4-yl)propan-2-yl]-1H-imidazole-4,5-dicarboxamide (enantiomer 2)]: 7 nM.

(Values after patent publication US9884063B2, “Amido-substituted azole compounds” (Bayer Pharma Aktiengesellschaft, priority 2014, dated 2018).)
